# Measured values as given in patent EP4670717A1, “PYRROLIDINE-FUSED MYRTANOL DERIVATIVES AS INHIBITORS AND/OR DEGRADERS OF IDO1 UND USE THEREOF” (Max-Planck-Gesellschaft zur Förderung der Wissenschaften …, priority 2024, dated 2025).
# Entries after “also recorded” stand apart in the source; their conditions may differ.
# Experiments:
# [1] = target: T1, recombinant human IDO1 (rhIDO1) (Homo sapiens, UniProt P14902); experiment: IDO1 enzymatic assay with recombinant protein, Kyn detection with p-DMAB; assay type: biochemical; settings: in vitro inhibition at 59 uM; pre-incubated with compounds at 37°C for 40 min
# T1 construct: Full-length rhIDO protein (1 µM) in 50 mM potassium phosphate buffer; GST (cleaved yes); made in house; host or cells: E. coli
# T1 sequence (P14902 whole entry): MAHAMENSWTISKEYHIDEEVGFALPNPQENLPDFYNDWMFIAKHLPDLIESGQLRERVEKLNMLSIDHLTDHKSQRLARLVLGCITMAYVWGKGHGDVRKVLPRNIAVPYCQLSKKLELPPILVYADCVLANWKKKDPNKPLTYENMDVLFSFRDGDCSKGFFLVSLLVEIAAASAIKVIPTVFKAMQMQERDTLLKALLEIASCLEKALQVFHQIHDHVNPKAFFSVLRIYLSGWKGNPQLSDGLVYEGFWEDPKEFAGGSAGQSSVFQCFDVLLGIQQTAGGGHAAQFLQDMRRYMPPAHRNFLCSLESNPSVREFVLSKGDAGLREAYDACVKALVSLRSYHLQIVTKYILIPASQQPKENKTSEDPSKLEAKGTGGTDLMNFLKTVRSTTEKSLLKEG
# Description: Reduction of the kynurenine level in the cell-based model employed for initial SAR exploration can be due to inhibition of enzymatic activity, degradation of IDO1, or both (Table B-2). In order to differentiate between these different activities, we explored the modes of action of selected compounds in an in vitro assay employing recombinant human IDO1 (rhIDO1) monitoring enzymatic activity only, and we characterized the degradation efficiency by means of Western blotting, determining maximum degradation levels at 0.1µM (Dmax) and half maximum degradation concentration (DC50) (Table B-2). Table B-2 in vitro inhibition and degradation of IDO1 by selected compounds. […] Data are mean values ± SD (n = 4, except for compounds 1, 11, and 19 (n=2)). […] Data are mean values of n biological replicates. Dmax corresponds to maximum levels of IDO1 degradation at 0.1 µM.
# Full-length rhIDO protein (1 µM) in 50 mM potassium phosphate buffer (50 mM KH2PO4 and 50 mM K2HPO4, pH 6.5) was incubated with the respective compounds for 40 min at 37 °C prior to the addition of 10 mM ascorbic acid, 10 µM methylene blue, 2 mM Trp and 100 µg/mL catalase (Sigma-Aldrich, C100). Samples were incubated for 60 min followed by the addition of trichloroacetic acid to a final concentration of 7 % and further incubation for 30 min at 37 °C. Kyn levels were detected by the addition of an equal volume of 2 % (w/v) p-DMAB in acetic acid and absorbance was measured at 492 nm and 650 nm as a background control. Values are presented relative to the DMSO control. Dose-response curves and IC50 values were generated and fitted with GraphPad Prism 6.0 (GraphPad software, USA) using four-parameter variable slope non-linear regression curve fit.
# IDO1 [2] = target: T2, IDO1 (Homo sapiens, UniProt P14902); experiment: Kyn assay in BxPC-3 cells (Kyn levels after IFN-γ and Trp); assay type: cell-based; settings: for IC50: BxPC-3 cells incubated with IFN-γ, Trp and the compounds for 48 h, read-out: Kyn assay IC50 ± SD; for activity in the cell-based kynurenine assay: result in words;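 on all read-outs here: kyn levels expressed relative to DMSO-treated control cells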
# T2 construct: BxPC3 cells were seeded in phenol red-free RPMI 1640 medium; endogenous in cells; host or cells: BxPC3 cells stimulated with IFN-γ (50 ng/mL)
# T2 sequence (P14902 whole entry): as above
# Description: BxPC3 cells were seeded in phenol red-free RPMI 1640 medium in 1536-well or 384-well plates (Greiner #782086, Corning #3770) 24 h prior to the addition of compounds, IFN-γ (50 ng/mL, PeproTech) and L-Trp (380 µM, Sigmal-Aldrich). After 48 h of incubation, first cell viability was accessed by the addition of Hoechst-33342. Afterwards, trichloroacetic acid (TCA, Sigma-Aldrich) was added to a final concentration of 7 % and incubated for 10 min prior to a centrifugation step of 10 min at 1620 × g. Kyn levels were determined by means of the Kyn sensor^7 at a final concentration of 17.5 µM in sensor buffer (50 mM H3PO4 and 120 mM NaCl (pH=1)). Fluorescence intensity (excitation: 535 nm, emission: 595 nm) was measured using a Spectramax Paradigm reader (Molecular Devices). Data were normalized to the values for cells that were treated with DMSO.
# For the manual assay, BxPC3 or SKOV3 cells were seeded in clear 96-well or 384-well plates, respectively, 24 h prior to compound treatment and IFN-γ (50 or 5 ng/mL, respectively) and L-Trp (380 µM) addition as described before.^7 48 h after treatment, TCA was added and Kyn levels were detected by means of 2 % w/v of p-DMAB (Ehrlich reagent) in acetic acid as described by Braun et al^29. The absorbance of the Ehrlich reagent was detected at 492 nm and at 650 nm as background control was measured on Spark® multimode microplate plate reader (Tecan, Austria). Kyn levels were determined by subtracting the absorbance value at 650 nm and presented relative to the DMSO control. Dose-response curves and IC50 values were generated and fitted with GraphPad Prism 6.0 (GraphPad software, USA) using four-parameter variable slope non-linear regression curve fit.
# Cells were incubated with IFN-γ, Trp and the compounds for 48 h prior to detection of Kyn levels.
# IDO1 [3] = target: T2, IDO1; experiment: IDO1 degradation in BxPC3 cells, IDO1 protein levels by immunoblotting; assay type: cell-based; settings: 50 ng/ml IFN-γ 24 h, washout, compound (100 nM) 24 h, maximum IDO1 degradation at 0.1 µM; for Dmax at 0.1 µM: BXPC-3, BxPC3 cells; for Dmax [%] (n): BxPC3 cells;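 on all read-outs here: IDO1 bands on Western blots detected with fluorescent dye-labelled secondary antibodies and quantified by band intensity, values are means of n biological replicates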
# Description: To analyze IDO1 levels, IFN-γ-stimulated BxPC3 cells (50 ng/mL IFN-γ), U2OS cells (5 ng/mL IFN-γ), HEK^rhIDO1 (HEK293T cells electroporated with rhIDO1), SKOV3 and BT549 cells were treated with compounds for the indicated times (6 h to 24 h) followed by cell lysis (150 mM sodium chloride in 50 mM Tris (pH 8.0) and 1% NP-40 Alternative, protease and phosphatase inhibitors). Protein concentrations were determined (DC protein assay, Bio-Rad) followed by addition of 1 × SDS loading buffer and protein separation by a 10% SDS-PAGE. Separated protein samples were transferred to a polyvinylidene difluoride (PVDF) membrane using a wet-tank blotting system (Bio-Rad). IDO1 as well as vinculin as a loading were detected using the primary antibodies anti-IDO1 (ab211017, abcam or 14-9750-80, Thermo Fisher), anti-vinculin (V9131, Thermo Fisher) and anti-β-actin (ab8227, abcam) in 5 % milk in PBS-buffered saline with 0.05 % (v/v) Tween-20 (PBS-T). Primary antibodies were incubated at 4°C overnight and detected with IRDye-conjugated secondary antibodies (LI-COR Biosciences). IDO1 protein level in BT549 and SKOV3 cells was detected with HRP conjugated secondary antibody and SuperSignal™ West Dura Extended Duration Substrat (Thermo Fisher Scientific). Washing steps were performed with PBS-T. Protein bands were visualized by ChemiDoc™ MP (Bio-Rad) using a fluorescent readout. Band intensities were quantified using Image Lab software.
# In order to differentiate between these different activities, we explored the modes of action of selected compounds in an in vitro assay employing recombinant human IDO1 (rhIDO1) monitoring enzymatic activity only, and we characterized the degradation efficiency by means of Western blotting, determining maximum degradation levels at 0.1µM (Dmax) and half maximum degradation concentration (DC50) (Table B-2). […] Data are mean values of n biological replicates. Dmax corresponds to maximum levels of IDO1 degradation at 0.1 µM.
IC50 (IDO1 [2]),Dmax at 0.1 µM (IDO1 [3]),SMILES,further results
200 to 1000 nM,,"Cc1ccc(NC(=O)OC[C@]23CN(S(=O)(=O)c4ccc(C(C)(C)C)cc4)C[C@H]2C[C@H]2C[C@@H]3C2(C)C)cc1 [compound 1, ((3aS,4R,6R,7aS)-2-((4-(tert-butyl)phenyl)sulfonyl)-5,5-dimethyloctahydro-3aH-4,6-methanoisoindol-3a-yl)methyl p-tolylcarbamate]",rhIDO1 enzymatic activity Inhibition [%] [1]: not active; also recorded: inactive
< 200 nM,37%,"CC(C)(C)c1ccc(S(=O)(=O)N2C[C@H]3C[C@H]4C[C@H](C4(C)C)[C@@]3(COC(=O)Nc3ccc(I)cc3)C2)cc1 [compound 11, ((3aS,4R,6R,7aS)-2-((4-(tert-butyl)phenyl)sulfonyl)-5,5-dimethyloctahydro-3aH-4,6-methanoisoindol-3a-yl)methyl (4-iodophenyl)carbamate]",rhIDO1 enzymatic activity Inhibition [%] [1]: not active; also recorded: inactive; fold more potent in the Kyn assay than compound 1 (IDO1 [2]; relative to compound 1): 7 fold; activity in the cell-based kynurenine assay (IDO1 [2]): low nanomolar range
< 200 nM,,"CCC(C)(C)c1ccc(S(=O)(=O)N2C[C@H]3C[C@H]4C[C@H](C4(C)C)[C@@]3(COC(=O)Nc3ccc(I)cc3)C2)cc1 [compound 48, ((3aS,4R,6R,7aS)-5,5-dimethyl-2-((4-(tert-pentyl)phenyl)sulfonyl)octahydro-3aH-4,6-methanoisoindol-3a-yl)methyl (4-iodophenyl)carbamate]",
< 200 nM,55 to 59%,"COc1cc(C(C)(C)C)ccc1S(=O)(=O)N1C[C@H]2C[C@H]3C[C@H](C3(C)C)[C@@]2(COC(=O)Nc2ccc(I)cc2)C1 [compound 55, ((3aS,4R,6R,7aS)-2-((4-(tert-butyl)-2-methoxyphenyl)sulfonyl)-5,5-dimethyloctahydro-3aH-4,6-methanoisoindol-3a-yl)methyl (4-iodophenyl)carbamate]",Dmax [%] (n) (IDO1 [3]): 59 ± 16 (3) %
< 200 nM,55 to 59%,"CC(C)(C)c1ccc(S(=O)(=O)N2C[C@H]3C[C@H]4C[C@H](C4(C)C)[C@@]3(COC(=O)Nc3ccc(I)cc3)C2)c(I)c1 [compound 57, ((3aS,4R,6R,7aS)-2-((4-(tert-butyl)-2-iodophenyl)sulfonyl)-5,5-dimethyloctahydro-3aH-4,6-methanoisoindol-3a-yl)methyl (4-iodophenyl)carbamate]",Dmax [%] (n) (IDO1 [3]): 55 ± 5 (3) %
< 200 nM,,"COCCOCC(C)(C)c1ccc(S(=O)(=O)N2C[C@H]3C[C@H]4C[C@H](C4(C)C)[C@@]3(COC(=O)Nc3ccc(I)cc3)C2)cc1 [compound 58, ((3aS,4R,6R,7aS)-2-((4-(1-(2-methoxyethoxy)-2-methylpropan-2-yl)phenyl)sulfonyl)-5,5-dimethyloctahydro-3aH-4,6-methanoisoindol-3a-yl)methyl (4-iodophenyl)carbamate]",
5000 to 10000 nM,,"CC(C)(C(=O)N1CCOCC1)c1ccc(S(=O)(=O)N2C[C@H]3C[C@H]4C[C@H](C4(C)C)[C@@]3(COC(=O)Nc3ccc(I)cc3)C2)cc1 [compound 59, ((3aS,4R,6R,7aS)-5,5-dimethyl-2-((4-(2-methyl-1-morpholino-1-oxopropan-2-yl)phenyl)sulfonyl)octahydro-3aH-4,6-methanoisoindol-3a-yl)methyl (4-iodophenyl)carbamate]",
200 to 1000 nM,,"CN(C)C(=O)C(C)(C)c1ccc(S(=O)(=O)N2C[C@H]3C[C@H]4C[C@H](C4(C)C)[C@@]3(COC(=O)Nc3ccc(I)cc3)C2)cc1 [compound 60, ((3aS,4R,6R,7aS)-2-((4-(1-(dimethylamino)-2-methyl-1-oxopropan-2-yl)phenyl)sulfonyl)-5,5-dimethyloctahydro-3aH-4,6-methanoisoindol-3a-yl)methyl (4-iodophenyl)carbamate]",
1000 to 5000 nM,,"CN(C)CC(C)(C)c1ccc(S(=O)(=O)N2C[C@H]3C[C@H]4C[C@H](C4(C)C)[C@@]3(COC(=O)Nc3ccc(I)cc3)C2)cc1 [compound 61, ((3aS,4R,6R,7aS)-2-((4-(1-(dimethylamino)-2-methylpropan-2-yl)phenyl)sulfonyl)-5,5-dimethyloctahydro-3aH-4,6-methanoisoindol-3a-yl)methyl (4-iodophenyl)carbamate]",
< 200 nM,,"COC(=O)CC(C)(C)c1ccc(S(=O)(=O)N2C[C@H]3C[C@H]4C[C@H](C4(C)C)[C@@]3(COC(=O)Nc3ccc(I)cc3)C2)cc1 [compound 62, Methyl 3-(4-(((3aS,4R,6R,7aS)-3a-((((4-iodophenyl)carbamoyl)oxy)methyl)-5,5-dimethyloctahydro-2H-4,6-methanoisoindol-2-yl)sulfonyl)phenyl)-3-methylbutanoate]",
200 to 1000 nM,,"CCOC(=O)C(C)(C)c1ccc(S(=O)(=O)N2C[C@H]3C[C@H]4C[C@H](C4(C)C)[C@@]3(COC(=O)Nc3ccc(I)cc3)C2)cc1 [compound 64, Ethyl 2-(4-(((3aS,4R,6R,7aS)-3a-((((4-iodophenyl)carbamoyl)oxy)methyl)-5,5-dimethyloctahydro-2H-4,6-methanoisoindol-2-yl)sulfonyl)phenyl)-2-methylpropanoate]",
< 200 nM,,"COC(=O)C(C)(C)c1ccc(S(=O)(=O)N2C[C@H]3C[C@H]4C[C@H](C4(C)C)[C@@]3(COC(=O)Nc3ccc(I)cc3)C2)c(OC)c1 [compound 66, Methyl 2-(4-(((3aS,4R,6R,7aS)-3a-((((4-iodophenyl)carbamoyl)oxy)methyl)-5,5-dimethyloctahydro-2H-4,6-methanoisoindol-2-yl)sulfonyl)-3-methoxyphenyl)-2-methylpropanoate]",
< 200 nM,0%,"COc1cc(C(C)(C)C(=O)O)ccc1S(=O)(=O)N1C[C@H]2C[C@H]3C[C@H](C3(C)C)[C@@]2(COC(=O)Nc2ccc(I)cc2)C1 [compound 67, 2-(4-(((3aS,4R,6R,7aS)-3a-((((4-iodophenyl)carbamoyl)oxy)methyl)-5,5-dimethyloctahydro-2H-4,6-methanoisoindol-2-yl)sulfonyl)-3-methoxyphenyl)-2-methylpropanoic acid]",
< 200 nM,,"COC(=O)C(C)(C)c1ccc(S(=O)(=O)N2C[C@H]3C[C@H]4C[C@H](C4(C)C)[C@@]3(COC(=O)Nc3ccc(I)cc3)C2)c(Cl)c1 [compound 68, Methyl 2-(3-chloro-4-(((3aS,4R,6R,7aS)-3a-((((4-iodophenyl)carbamoyl)oxy)methyl)-5,5-dimethyloctahydro-2H-4,6-methanoisoindol-2-yl)sulfonyl)phenyl)-2-methylpropanoate]",rhIDO1 enzymatic activity Inhibition [%] [1]: inactive
< 200 nM,27 ± 14%,"C#Cc1ccc(NC(=O)OC[C@]23CN(S(=O)(=O)c4ccc(C(C)(C)C(=O)O)cc4C)C[C@H]2C[C@H]2C[C@@H]3C2(C)C)cc1 [compound 75, 2-(4-(((3aS,4R,6R,7aS)-3a-((((4-ethynylphenyl)carbamoyl)oxy)methyl)-5,5-dimethyloctahydro-2H-4,6-methanoisoindol-2-yl)sulfonyl)-3-methylphenyl)-2-methylpropanoic acid]",activity in the cell-based kynurenine assay (IDO1 [2]): low nanomolar range

SMILES,IC50 (IDO1 [2]),Dmax at 0.1 µM (IDO1 [3]),further results
C#Cc1ccc(NC(=O)OC[C@]23CN(S(=O)(=O)c4ccc(C(C)(C)C)cc4)C[C@H]2C[C@H]2C[C@@H]3C2(C)C)cc1 [compound 19],< 200 nM,> 60%,Dmax [%] (n) (IDO1 [3]): 62 ± 10 (5) %; inhibition at 59 µM [1]: 49 ± 0.6%; activity in the cell-based kynurenine assay (IDO1 [2]): low nanomolar range
"CC1(C)[C@H]2C[C@@H]3CN(S(=O)(=O)c4ccc([Si](C)(C)C)cc4)C[C@]3(COC(=O)Nc3ccc(I)cc3)[C@@H]1C2 [compound 50, ((3aS,4R,6R,7aS)-5,5-dimethyl-2-((4-(trimethylsilyl)phenyl)sulfonyl)octahydro-3aH-4,6-methanoisoindol-3a-yl)methyl (4-iodophenyl)carbamate]",200 to 1000 nM,,
"C#Cc1ccc(NC(=O)OC[C@]23CN(S(=O)(=O)c4ccc(C5(C(F)(F)F)N=N5)cc4)C[C@H]2C[C@H]2C[C@@H]3C2(C)C)cc1 [compound 76, ((3aS,4R,6R,7aS)-5,5-dimethyl-2-((4-(3-(trifluoromethyl)-3H-diazirin-3-yl)phenyl)sulfonyl)octahydro-3aH-4,6-methanoisoindol-3a-yl)methyl (4-ethynylphenyl) carbamate]",< 200 nM,,
